ChEMBL document CHEMBL4251744, “Identification of Lycopodium Alkaloids Produced by an Ultraviolet-Irradiated Strain of Paraboeremia, an Endophytic Fungus from Lycopodium serratum var. longipetiolatum” (J Nat Prod, 2018)
pIC50: −log10 of the molar value.

Experiments:
Acetylcholinesterase [1] = target: T1, Acetylcholinesterase (Homo sapiens, UniProt P22303); experiment: Inhibition of AChE (unknown origin) using acetylthiocholine iodide as substrate by Ellman's method
Acetylcholinesterase [2] = target: T1, Acetylcholinesterase; experiment: Inhibition of AChE (unknown origin)

T1 sequence (P22303 whole entry): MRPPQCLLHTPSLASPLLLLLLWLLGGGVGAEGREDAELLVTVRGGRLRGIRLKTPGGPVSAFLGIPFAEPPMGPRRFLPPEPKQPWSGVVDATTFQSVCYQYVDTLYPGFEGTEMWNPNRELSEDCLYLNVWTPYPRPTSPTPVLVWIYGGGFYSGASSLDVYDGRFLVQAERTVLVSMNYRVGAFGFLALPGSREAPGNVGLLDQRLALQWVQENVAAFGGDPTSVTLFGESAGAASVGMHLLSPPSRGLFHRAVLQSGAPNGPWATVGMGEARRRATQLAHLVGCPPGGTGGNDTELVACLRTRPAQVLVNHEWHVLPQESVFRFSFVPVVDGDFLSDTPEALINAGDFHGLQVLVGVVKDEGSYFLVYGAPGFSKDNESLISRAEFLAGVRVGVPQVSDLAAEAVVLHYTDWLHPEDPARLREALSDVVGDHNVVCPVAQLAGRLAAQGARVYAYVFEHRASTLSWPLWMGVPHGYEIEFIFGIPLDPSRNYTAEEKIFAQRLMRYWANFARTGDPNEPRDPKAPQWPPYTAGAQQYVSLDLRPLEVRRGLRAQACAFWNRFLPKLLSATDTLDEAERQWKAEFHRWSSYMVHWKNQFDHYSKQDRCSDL

C[C@@H]1C[C@H]2CC(=O)[C@H]3CCC[N+]4([O-])CCC[C@@H]2[C@]34C1 (stereo partly drawn)
pIC50 (Acetylcholinesterase [1]): < 4.00

C[C@@H]1C[C@H]2CC(=O)[C@H]3CCCN4CCC[C@@H]2[C@]34C1
pIC50 (Acetylcholinesterase [1]): < 4.00

C[C@@H]1C[C@H]2CC(=O)[C@H]3CCC[N+]4([O-])CCC[C@]2(O)[C@]34C1 (stereo partly drawn)
pIC50 (Acetylcholinesterase [2]): 6.23
